Experimental data as given in patent publication US8697721B2, “Chromen-2-one derivatives and their use as monoamine neurotransmitter re-uptake inhibitors” (Aniona APS, priority 2009, dated 2014).
Where a name gives a salt, the structure may show the parent alone.

Assays:
Format in all cases: biochemical
[1] = target: T1, dopamine (DA) reuptake in synaptosomes (Rattus norvegicus, UniProt P23977); assay: In vitro inhibition of 3H-DA reuptake in synaptosomes; details: mean ± spread (n), read-out: DA-uptake IC50
T1 construct: in synaptosomes as described in WO 97/16451; from tissue
Procedure: (§1) The compound was tested for its ability to inhibit the reuptake of the monoamine neurotransmitters dopamine (DA) noradrenaline (NA) and serotonine (5-HT) in synaptosomes as described in WO 97/16451.
(§2) The test values are given as IC50 (the concentration (μM) of the test substance which inhibits the specific binding of ^3H-DA, ^3H-NA, or ^3H-5-HT by 50%).

[2] = target: T2, serotonine (5-HT) reuptake in synaptosomes (Rattus norvegicus, UniProt P31652); assay: In vitro inhibition of 3H-5-HT reuptake in synaptosomes; details: mean ± spread (n), read-out: 5-HT-uptake IC50
T2 construct: in synaptosomes as described in WO 97/16451; from tissue
Procedure: as §1, §2

[3] = target: T3, noradrenaline (NA) reuptake in synaptosomes (Rattus norvegicus, UniProt Q63380); assay: In vitro inhibition of 3H-NA reuptake in synaptosomes; details: mean ± spread (n), read-out: NA-uptake IC50
T3 construct: in synaptosomes as described in WO 97/16451; from tissue
Procedure: as §1, §2

T1 sequence (P23977 whole entry): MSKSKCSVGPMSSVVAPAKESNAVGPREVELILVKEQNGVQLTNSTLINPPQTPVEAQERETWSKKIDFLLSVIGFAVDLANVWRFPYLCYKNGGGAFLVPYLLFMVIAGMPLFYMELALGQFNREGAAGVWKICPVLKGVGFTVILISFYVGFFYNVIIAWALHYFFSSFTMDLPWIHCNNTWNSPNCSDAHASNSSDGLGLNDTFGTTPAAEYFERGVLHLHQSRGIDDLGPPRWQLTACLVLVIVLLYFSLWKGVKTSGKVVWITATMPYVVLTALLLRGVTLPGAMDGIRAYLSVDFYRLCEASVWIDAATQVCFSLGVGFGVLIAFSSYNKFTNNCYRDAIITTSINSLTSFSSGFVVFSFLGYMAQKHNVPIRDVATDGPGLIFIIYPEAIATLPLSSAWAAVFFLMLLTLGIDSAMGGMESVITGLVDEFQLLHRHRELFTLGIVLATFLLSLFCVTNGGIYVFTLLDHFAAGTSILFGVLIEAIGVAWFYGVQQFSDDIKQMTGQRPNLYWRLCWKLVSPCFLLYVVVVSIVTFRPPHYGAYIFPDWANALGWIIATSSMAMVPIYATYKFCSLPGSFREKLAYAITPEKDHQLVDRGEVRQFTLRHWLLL
T3 sequence (Q63380 1-617): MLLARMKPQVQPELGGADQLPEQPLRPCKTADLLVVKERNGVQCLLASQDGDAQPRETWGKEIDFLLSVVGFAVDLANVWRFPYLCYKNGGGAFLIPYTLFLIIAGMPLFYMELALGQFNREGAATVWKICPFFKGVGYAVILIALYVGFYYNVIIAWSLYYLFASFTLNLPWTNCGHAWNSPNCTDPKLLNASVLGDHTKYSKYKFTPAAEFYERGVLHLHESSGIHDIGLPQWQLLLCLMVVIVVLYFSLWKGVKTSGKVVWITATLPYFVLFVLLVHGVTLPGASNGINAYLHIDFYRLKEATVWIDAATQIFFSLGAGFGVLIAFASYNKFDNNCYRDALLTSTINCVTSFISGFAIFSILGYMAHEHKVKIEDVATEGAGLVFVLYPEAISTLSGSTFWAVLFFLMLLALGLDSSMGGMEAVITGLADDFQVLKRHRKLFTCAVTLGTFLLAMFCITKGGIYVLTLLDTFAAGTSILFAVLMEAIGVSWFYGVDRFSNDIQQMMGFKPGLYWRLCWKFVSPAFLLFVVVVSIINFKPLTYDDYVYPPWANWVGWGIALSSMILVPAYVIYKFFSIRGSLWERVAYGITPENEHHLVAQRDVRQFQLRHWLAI
T2 sequence (P31652 whole entry): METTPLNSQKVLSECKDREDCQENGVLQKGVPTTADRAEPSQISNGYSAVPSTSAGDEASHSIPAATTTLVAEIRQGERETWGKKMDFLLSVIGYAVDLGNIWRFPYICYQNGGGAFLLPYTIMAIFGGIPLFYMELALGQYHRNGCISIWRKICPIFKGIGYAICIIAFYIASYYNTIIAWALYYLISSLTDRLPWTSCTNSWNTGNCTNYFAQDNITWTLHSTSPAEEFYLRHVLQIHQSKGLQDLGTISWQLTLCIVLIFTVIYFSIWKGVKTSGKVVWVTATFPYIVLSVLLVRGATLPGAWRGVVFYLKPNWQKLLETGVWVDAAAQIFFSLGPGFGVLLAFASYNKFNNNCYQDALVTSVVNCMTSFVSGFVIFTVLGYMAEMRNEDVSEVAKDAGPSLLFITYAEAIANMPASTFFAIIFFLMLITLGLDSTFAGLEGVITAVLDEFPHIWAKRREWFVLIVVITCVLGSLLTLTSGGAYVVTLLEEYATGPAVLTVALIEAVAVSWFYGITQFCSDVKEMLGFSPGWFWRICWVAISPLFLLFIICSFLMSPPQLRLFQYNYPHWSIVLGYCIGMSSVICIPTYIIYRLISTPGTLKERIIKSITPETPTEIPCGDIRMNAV

Cc1cc2ccc(O[C@@H]3C[C@H]4CC[C@@H](C3)N4)cc2oc1=O [Compound 1.1, exo-7-[(8-Aza-bicyclo[3.2.1]oct-3-yl)oxy]-3-methyl-chromen-2-one hydrochloric Acid Salt] was tested, and the IC50 [1] was 170 ± 21 nM, the IC50 [2] was 0.76 nM and the IC50 [3] was 11 ± 6.1 nM.
